The values below come from ChEMBL document CHEMBL4804281, “STK4 inhibitors for treatment of hematologic malignancies” (2020).

One test deals with NCI-H929. Kind of test: Upregulation of YAP1 protein level in human NCI-H929 cells at 1 to 10 uM measured after 16 hrs by Western blot analysis. The test is classed as functional, cell-based. As to conditions: dose 1-10 µM.
Test [1] concerns MM1.S. Kind of test: Upregulation of YAP1 protein level in human MM1.S cells at 1 to 10 uM measured after 16 hrs by Western blot analysis. As to conditions: dose 1-10 µM. The test is classed as functional, cell-based.
The test system of test [2] is MM1.S. Kind of test: Downregulation of phosphorylated-MOB1 protein level in human MM1.S cells at 1 to 10 uM measured after 6 hrs by Western blot analysis. The test is classed as functional, cell-based. The settings on record: dose 1-10 µM.
Test [3] concerns the target T1, Serine/threonine-protein kinase 4 (Homo sapiens) (UniProt Q13043).
T1 sequence (whole entry): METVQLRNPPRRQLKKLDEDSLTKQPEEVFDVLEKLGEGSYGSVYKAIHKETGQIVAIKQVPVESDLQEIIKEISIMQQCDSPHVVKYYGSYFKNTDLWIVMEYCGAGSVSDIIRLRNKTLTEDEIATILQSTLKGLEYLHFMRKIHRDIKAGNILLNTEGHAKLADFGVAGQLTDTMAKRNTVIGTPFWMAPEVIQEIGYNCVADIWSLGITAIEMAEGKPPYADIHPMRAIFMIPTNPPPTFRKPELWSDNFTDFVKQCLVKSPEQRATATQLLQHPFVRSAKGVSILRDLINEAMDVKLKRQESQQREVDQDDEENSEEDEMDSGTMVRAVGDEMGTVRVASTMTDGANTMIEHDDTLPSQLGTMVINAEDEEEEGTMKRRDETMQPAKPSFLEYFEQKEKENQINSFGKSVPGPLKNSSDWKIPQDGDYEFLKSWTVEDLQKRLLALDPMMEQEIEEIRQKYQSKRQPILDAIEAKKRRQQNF
Kind of test: Inhibition of STK4 (unknown origin) using fluorescein-labelled Ser/Thr-07 peptide as substrate incubated for 1 hr in presence of ATP at Km concentration by Z-LYTE assay.

Test [4] has as its target Serine/threonine-protein kinase 26 (Homo sapiens) (UniProt Q9P289). Kind of test: Inhibition of MST4 (unknown origin) using fluorescein-labelled Ser/Thr-07 peptide as substrate incubated for 1 hr in presence of ATP at Km concentration by Z-LYTE assay.
Test [5] concerns the target T2, Serine/threonine-protein kinase 3 (Homo sapiens) (UniProt Q13188).
T2 sequence (whole entry): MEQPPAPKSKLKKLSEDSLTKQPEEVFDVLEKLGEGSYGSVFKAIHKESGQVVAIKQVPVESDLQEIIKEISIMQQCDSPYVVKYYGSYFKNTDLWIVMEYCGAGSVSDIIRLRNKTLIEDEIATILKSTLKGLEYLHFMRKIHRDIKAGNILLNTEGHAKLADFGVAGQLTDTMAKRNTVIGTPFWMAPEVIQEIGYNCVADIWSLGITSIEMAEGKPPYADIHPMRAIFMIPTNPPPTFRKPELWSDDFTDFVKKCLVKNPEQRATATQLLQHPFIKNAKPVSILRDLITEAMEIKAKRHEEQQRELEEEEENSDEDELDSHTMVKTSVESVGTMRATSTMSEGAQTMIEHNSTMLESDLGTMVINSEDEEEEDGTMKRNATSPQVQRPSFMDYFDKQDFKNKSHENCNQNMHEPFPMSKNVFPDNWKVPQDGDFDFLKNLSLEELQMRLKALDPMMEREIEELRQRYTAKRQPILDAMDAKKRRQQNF
Kind of test: Inhibition of STK3 (unknown origin) using fluorescein-labelled Ser/Thr-07 peptide as substrate incubated for 1 hr in presence of ATP at Km concentration by Z-LYTE assay.

Test [6] deals with Serine/threonine-protein kinase 24 (Homo sapiens) (UniProt Q9Y6E0). Kind of test: Inhibition of STK24 (unknown origin) using fluorescein-labelled Ser/Thr-07 peptide as substrate incubated for 1 hr in presence of ATP at Km concentration by Z-LYTE assay.
Serine/threonine-protein kinase 24 (Homo sapiens), sequence (Q9Y6E0 whole entry, looked up, the tested form may be a part, canonical isoform): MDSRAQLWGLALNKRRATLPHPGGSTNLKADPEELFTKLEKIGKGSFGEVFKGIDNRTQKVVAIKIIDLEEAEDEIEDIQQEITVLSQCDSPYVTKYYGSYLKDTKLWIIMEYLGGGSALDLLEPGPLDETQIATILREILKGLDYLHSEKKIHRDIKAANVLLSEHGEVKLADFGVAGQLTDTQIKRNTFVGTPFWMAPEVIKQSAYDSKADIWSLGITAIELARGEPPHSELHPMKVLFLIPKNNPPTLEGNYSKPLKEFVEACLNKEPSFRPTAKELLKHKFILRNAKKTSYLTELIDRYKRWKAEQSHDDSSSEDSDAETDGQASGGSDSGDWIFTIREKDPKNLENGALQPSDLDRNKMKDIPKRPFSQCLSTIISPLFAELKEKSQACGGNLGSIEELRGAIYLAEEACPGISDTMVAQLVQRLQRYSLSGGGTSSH
The target in test [7] is Casein kinase I isoform gamma-3 (Homo sapiens) (UniProt Q9Y6M4). Kind of test: Inhibition of wild-type human full length CSNK1G3 (M1 to K447 residues) expressed in bacterial expression system by Kinomescan method.
Casein kinase I isoform gamma-3 (Homo sapiens), sequence (Q9Y6M4 whole entry, looked up, the tested form may be a part, canonical isoform): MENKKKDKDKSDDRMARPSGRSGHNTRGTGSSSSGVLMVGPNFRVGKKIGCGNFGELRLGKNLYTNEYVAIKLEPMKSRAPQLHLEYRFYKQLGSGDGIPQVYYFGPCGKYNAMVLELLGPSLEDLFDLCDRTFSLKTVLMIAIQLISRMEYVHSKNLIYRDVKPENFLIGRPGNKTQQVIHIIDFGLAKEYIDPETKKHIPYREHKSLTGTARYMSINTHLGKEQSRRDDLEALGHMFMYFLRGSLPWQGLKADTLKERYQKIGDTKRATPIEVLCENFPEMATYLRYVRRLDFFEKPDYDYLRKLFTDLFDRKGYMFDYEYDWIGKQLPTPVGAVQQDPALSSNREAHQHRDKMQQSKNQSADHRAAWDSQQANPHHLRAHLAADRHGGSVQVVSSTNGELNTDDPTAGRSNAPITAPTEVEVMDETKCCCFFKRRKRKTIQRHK
Test [8] has as its target Casein kinase I isoform epsilon (Homo sapiens) (UniProt P49674). Kind of test: Inhibition of wild-type human full length CSNK1E (M1 to K416 residues) expressed in bacterial expression system by Kinomescan method.
The target of test [9] is T2, Serine/threonine-protein kinase 3 (Homo sapiens). Kind of test: Inhibition of wild-type human partial length MST2 (D17 to E318 residues) expressed in bacterial expression system by Kinomescan method.
Test [10] addresses Interleukin-1 receptor-associated kinase 1 (Homo sapiens) (UniProt P51617). Kind of test: Inhibition of wild-type human partial length IRAK1 (R194 to S712 residues) expressed in mammalian expression system by Kinomescan method.

Each structure is given as a SMILES string. Calls of active or inactive are those of the source. No cut-off for these calls is given here. Where only a bound is given, the exact number is not on record here.

Interleukin-1 receptor-associated kinase 1 (Homo sapiens), sequence (P51617 whole entry, looked up, the tested form may be a part): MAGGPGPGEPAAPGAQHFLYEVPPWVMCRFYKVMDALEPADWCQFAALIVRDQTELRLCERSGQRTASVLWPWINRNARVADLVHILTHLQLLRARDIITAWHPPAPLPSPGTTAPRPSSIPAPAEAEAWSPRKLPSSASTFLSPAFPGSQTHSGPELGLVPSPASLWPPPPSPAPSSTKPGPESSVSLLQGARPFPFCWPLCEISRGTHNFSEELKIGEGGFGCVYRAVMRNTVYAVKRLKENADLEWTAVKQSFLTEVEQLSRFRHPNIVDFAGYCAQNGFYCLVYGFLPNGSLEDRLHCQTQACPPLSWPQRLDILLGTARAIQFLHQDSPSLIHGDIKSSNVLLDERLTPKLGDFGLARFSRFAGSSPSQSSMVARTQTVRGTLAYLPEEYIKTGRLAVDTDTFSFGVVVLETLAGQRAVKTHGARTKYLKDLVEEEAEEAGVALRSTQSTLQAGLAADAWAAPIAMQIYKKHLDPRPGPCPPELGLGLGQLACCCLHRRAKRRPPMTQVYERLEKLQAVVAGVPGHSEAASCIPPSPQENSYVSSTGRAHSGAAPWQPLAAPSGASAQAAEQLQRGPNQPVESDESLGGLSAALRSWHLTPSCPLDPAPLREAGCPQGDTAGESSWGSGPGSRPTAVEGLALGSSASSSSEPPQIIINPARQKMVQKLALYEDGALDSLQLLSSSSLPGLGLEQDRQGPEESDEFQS
Serine/threonine-protein kinase 26 (Homo sapiens), sequence (Q9P289 2-416 limits assumed): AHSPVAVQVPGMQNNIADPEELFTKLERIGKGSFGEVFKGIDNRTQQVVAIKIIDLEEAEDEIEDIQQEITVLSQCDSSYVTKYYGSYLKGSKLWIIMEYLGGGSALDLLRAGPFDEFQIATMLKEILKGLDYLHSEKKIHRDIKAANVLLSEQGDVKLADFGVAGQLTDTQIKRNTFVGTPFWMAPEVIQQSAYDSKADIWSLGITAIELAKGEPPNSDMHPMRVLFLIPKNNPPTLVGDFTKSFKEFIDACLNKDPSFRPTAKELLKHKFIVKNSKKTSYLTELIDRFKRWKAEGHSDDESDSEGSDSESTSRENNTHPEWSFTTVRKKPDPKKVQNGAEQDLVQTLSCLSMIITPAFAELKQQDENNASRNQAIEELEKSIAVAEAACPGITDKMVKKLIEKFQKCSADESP
Casein kinase I isoform epsilon (Homo sapiens), sequence (P49674 whole entry, looked up, the tested form may be a part, canonical isoform): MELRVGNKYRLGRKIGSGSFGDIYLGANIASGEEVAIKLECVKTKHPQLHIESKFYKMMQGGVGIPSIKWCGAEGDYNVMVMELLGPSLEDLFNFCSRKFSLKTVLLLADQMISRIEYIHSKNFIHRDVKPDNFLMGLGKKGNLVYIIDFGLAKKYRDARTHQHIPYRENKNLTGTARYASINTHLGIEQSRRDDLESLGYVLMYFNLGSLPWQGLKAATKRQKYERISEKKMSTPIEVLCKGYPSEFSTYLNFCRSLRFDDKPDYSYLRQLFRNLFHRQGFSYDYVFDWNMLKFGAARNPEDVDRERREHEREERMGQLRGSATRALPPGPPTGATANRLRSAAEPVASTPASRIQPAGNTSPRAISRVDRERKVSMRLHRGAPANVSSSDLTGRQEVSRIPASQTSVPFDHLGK

For the molecule `Nc1ncc(-c2cc([N+](=O)[O-])ccc2F)cc1-c1ccc2c(c1)CCNC2=O`, the outcome in the test on NCI-H929, in the test on MM1.S [1] and in the test with MM1.S [2] was Active. In addition, the IC50 in test [3] was less than 40 nM; in test [4], greater than 900 nM; in [5] it was 40 nM; in test [6], greater than 900 nM. For the same molecule, the Kd in [7] was 4.68 nM; in test [8], 201 nM; in test [9], 42.6 nM; in test [10] it was 110 nM.
